Numbers after ± are expanded uncertainties.
Assay: wn = mass fraction of the nth substance listed
Details: Liquid, Pycnometric method, w2 = 0.4981

FC(F)C(F)(F)F [pentafluoroethane] + FCF
Details	mass density [kg/m3]
357.15 K, 9042 kPa	773.5 ± 1.3
357.15 K, 9048 kPa	773.4 ± 1.3
357.15 K, 16243 kPa	919 ± 1.7
357.15 K, 16254 kPa	918.9 ± 1.5
357.15 K, 16277 kPa	919.1 ± 1.7
358.15 K, 9284 kPa	773.4 ± 1.3
358.15 K, 9290 kPa	773.3 ± 1.3
358.15 K, 16617 kPa	918.9 ± 1.7
358.15 K, 16628 kPa	918.8 ± 1.5
358.15 K, 16652 kPa	919.1 ± 1.7
359.15 K, 9527 kPa	773.3 ± 1.3
359.15 K, 9532 kPa	773.3 ± 1.3
359.15 K, 16990 kPa	918.8 ± 1.6
359.15 K, 17003 kPa	918.7 ± 1.5
359.15 K, 17027 kPa	919 ± 1.6
360.15 K, 9770 kPa	773.3 ± 1.3
360.15 K, 9775 kPa	773.2 ± 1.3
360.15 K, 17365 kPa	918.7 ± 1.7
360.15 K, 17377 kPa	918.7 ± 1.5
360.15 K, 17401 kPa	918.9 ± 1.7
361.15 K, 10013 kPa	773.2 ± 1.3
361.15 K, 10019 kPa	773.1 ± 1.3
361.15 K, 17739 kPa	918.6 ± 2.5
361.15 K, 17752 kPa	918.6 ± 1.5
361.15 K, 17776 kPa	918.8 ± 2.5
362.15 K, 10256 kPa	773.2 ± 1.3
362.15 K, 10262 kPa	773.1 ± 1.3
362.15 K, 18113 kPa	918.5 ± 1.6
362.15 K, 18127 kPa	918.5 ± 1.5
362.15 K, 18151 kPa	918.7 ± 1.6
363.15 K, 10501 kPa	773.1 ± 1.3
363.15 K, 10506 kPa	773 ± 1.3
363.15 K, 18487 kPa	918.4 ± 2
363.15 K, 18501 kPa	918.4 ± 2
363.15 K, 18526 kPa	918.6 ± 2
364.15 K, 10745 kPa	773.1 ± 1.3
364.15 K, 10751 kPa	773 ± 1.3
364.15 K, 18862 kPa	918.4 ± 1.6
364.15 K, 18876 kPa	918.3 ± 1.5
364.15 K, 18899 kPa	918.5 ± 1.6
365.15 K, 10990 kPa	773 ± 1.3
365.15 K, 10996 kPa	772.9 ± 1.3
365.15 K, 19236 kPa	918.3 ± 1.6
365.15 K, 19250 kPa	918.3 ± 1.5
365.15 K, 19274 kPa	918.4 ± 1.8
366.15 K, 11235 kPa	772.9 ± 1.3
366.15 K, 11241 kPa	772.9 ± 1.3
366.15 K, 19610 kPa	918.2 ± 1.9
366.15 K, 19625 kPa	918.2 ± 1.5
366.15 K, 19649 kPa	918.4 ± 1.9
367.15 K, 11480 kPa	772.9 ± 1.3
367.15 K, 11486 kPa	772.8 ± 1.3
367.15 K, 19985 kPa	918.1 ± 1.5
367.15 K, 20000 kPa	918.1 ± 1.5
367.15 K, 20025 kPa	918.3 ± 1.5
368.15 K, 11726 kPa	772.8 ± 1.3
368.15 K, 11732 kPa	772.7 ± 1.3
368.15 K, 20360 kPa	918 ± 1.5
368.15 K, 20375 kPa	918 ± 1.5
368.15 K, 20400 kPa	918.2 ± 1.5
369.15 K, 11972 kPa	772.8 ± 1.3
369.15 K, 11979 kPa	772.7 ± 1.3
369.15 K, 20734 kPa	917.9 ± 1.5
369.15 K, 20750 kPa	917.9 ± 1.5
369.15 K, 20776 kPa	918.1 ± 1.5
370.15 K, 12219 kPa	772.7 ± 1.3
370.15 K, 12225 kPa	772.6 ± 1.3
370.15 K, 21109 kPa	917.8 ± 1.5
370.15 K, 21125 kPa	917.8 ± 1.5
370.15 K, 21150 kPa	918 ± 1.5
371.15 K, 12465 kPa	772.6 ± 1.3
371.15 K, 12472 kPa	772.6 ± 1.3
371.15 K, 21484 kPa	917.7 ± 1.5
371.15 K, 21500 kPa	917.7 ± 1.5
371.15 K, 21525 kPa	917.9 ± 1.5
372.15 K, 12712 kPa	772.6 ± 1.3
372.15 K, 12719 kPa	772.5 ± 1.3
372.15 K, 21859 kPa	917.6 ± 1.5
372.15 K, 21875 kPa	917.6 ± 1.5
372.15 K, 21901 kPa	917.8 ± 1.5
373.15 K, 12959 kPa	772.5 ± 1.3
373.15 K, 12966 kPa	772.5 ± 1.3
373.15 K, 22234 kPa	917.5 ± 1.5
373.15 K, 22250 kPa	917.6 ± 1.5
373.15 K, 22277 kPa	917.8 ± 1.5
374.15 K, 13207 kPa	772.5 ± 1.3
374.15 K, 13213 kPa	772.4 ± 1.3
374.15 K, 22609 kPa	917.5 ± 1.5
374.15 K, 22625 kPa	917.5 ± 1.5
374.15 K, 22654 kPa	917.7 ± 1.5
375.15 K, 13454 kPa	772.4 ± 1.3
375.15 K, 13461 kPa	772.3 ± 1.3
375.15 K, 22984 kPa	917.4 ± 1.5
375.15 K, 23000 kPa	917.4 ± 1.5
375.15 K, 23029 kPa	917.6 ± 1.5
376.15 K, 13702 kPa	772.3 ± 1.3
376.15 K, 13709 kPa	772.3 ± 1.3
376.15 K, 23359 kPa	917.3 ± 1.5
376.15 K, 23375 kPa	917.3 ± 1.5
376.15 K, 23406 kPa	917.5 ± 1.5
377.15 K, 13950 kPa	772.3 ± 1.3
377.15 K, 13957 kPa	772.2 ± 1.3
377.15 K, 23734 kPa	917.2 ± 1.5
377.15 K, 23750 kPa	917.2 ± 1.5
377.15 K, 23780 kPa	917.4 ± 1.5
378.15 K, 14198 kPa	772.2 ± 1.3
378.15 K, 14205 kPa	772.2 ± 1.3
378.15 K, 24109 kPa	917.1 ± 1.5
378.15 K, 24125 kPa	917.1 ± 1.5
378.15 K, 24155 kPa	917.3 ± 1.5
379.15 K, 14447 kPa	772.2 ± 1.3
379.15 K, 14454 kPa	772.1 ± 1.3
379.15 K, 24484 kPa	917 ± 1.5
379.15 K, 24500 kPa	917 ± 1.5
379.15 K, 24531 kPa	917.2 ± 1.5
380.15 K, 14696 kPa	772.1 ± 1.3
380.15 K, 14702 kPa	772 ± 1.3
380.15 K, 24858 kPa	916.9 ± 1.5
380.15 K, 24875 kPa	916.9 ± 1.5
380.15 K, 24906 kPa	917.1 ± 1.5
381.15 K, 14944 kPa	772.1 ± 1.3
381.15 K, 14951 kPa	772 ± 1.3
381.15 K, 25233 kPa	916.8 ± 1.5
381.15 K, 25250 kPa	916.8 ± 1.5
381.15 K, 25282 kPa	917 ± 1.5
382.15 K, 15194 kPa	772 ± 1.3
382.15 K, 15200 kPa	771.9 ± 1.3
382.15 K, 25608 kPa	916.7 ± 1.5
382.15 K, 25625 kPa	916.7 ± 1.5
382.15 K, 25657 kPa	916.9 ± 1.5
383.15 K, 15443 kPa	772 ± 1.3
383.15 K, 15449 kPa	771.8 ± 1.3
383.15 K, 25983 kPa	916.6 ± 1.5
383.15 K, 26000 kPa	916.6 ± 1.5
383.15 K, 26033 kPa	916.8 ± 1.5
384.15 K, 15692 kPa	771.9 ± 1.3
384.15 K, 15699 kPa	771.8 ± 1.3
384.15 K, 26358 kPa	916.5 ± 1.5
384.15 K, 26375 kPa	916.5 ± 1.5
384.15 K, 26408 kPa	916.7 ± 1.5
385.15 K, 15942 kPa	771.8 ± 1.3
385.15 K, 15948 kPa	771.7 ± 1.3
385.15 K, 26733 kPa	916.4 ± 1.5
385.15 K, 26750 kPa	916.5 ± 1.5
385.15 K, 26784 kPa	916.6 ± 1.5
386.15 K, 16192 kPa	771.8 ± 1.3
386.15 K, 16198 kPa	771.7 ± 1.3
386.15 K, 27107 kPa	916.3 ± 1.5
386.15 K, 27125 kPa	916.4 ± 1.5
386.15 K, 27159 kPa	916.6 ± 1.5
387.15 K, 16442 kPa	771.7 ± 1.3
387.15 K, 16448 kPa	771.6 ± 1.3
387.15 K, 27482 kPa	916.2 ± 1.5
387.15 K, 27500 kPa	916.3 ± 1.5
387.15 K, 27533 kPa	916.5 ± 1.5
388.15 K, 16692 kPa	771.6 ± 1.3
388.15 K, 16698 kPa	771.5 ± 1.3
388.15 K, 27856 kPa	916.1 ± 1.5
388.15 K, 27874 kPa	916.2 ± 1.5
388.15 K, 27907 kPa	916.4 ± 1.5
389.15 K, 16942 kPa	771.6 ± 1.3
389.15 K, 16948 kPa	771.5 ± 1.3
389.15 K, 28231 kPa	916 ± 1.5
389.15 K, 28249 kPa	916.1 ± 1.5
389.15 K, 28282 kPa	916.3 ± 1.5
390.15 K, 17192 kPa	771.5 ± 1.3
390.15 K, 17198 kPa	771.4 ± 1.3
390.15 K, 28605 kPa	915.9 ± 1.5
390.15 K, 28624 kPa	916 ± 1.5
390.15 K, 28657 kPa	916.2 ± 1.5
391.15 K, 17442 kPa	771.4 ± 1.3
391.15 K, 17448 kPa	771.3 ± 1.3
391.15 K, 28979 kPa	915.8 ± 1.5
391.15 K, 28998 kPa	915.9 ± 1.5
391.15 K, 29032 kPa	916.1 ± 1.5
392.15 K, 17692 kPa	771.4 ± 1.3
392.15 K, 17698 kPa	771.3 ± 1.3
392.15 K, 29354 kPa	915.7 ± 1.5
392.15 K, 29373 kPa	915.8 ± 1.5
392.15 K, 29407 kPa	916 ± 1.5
393.15 K, 17943 kPa	771.3 ± 1.3
393.15 K, 17949 kPa	771.2 ± 1.3
393.15 K, 29728 kPa	915.6 ± 1.5
393.15 K, 29782 kPa	915.9 ± 1.5
394.15 K, 18193 kPa	771.3 ± 1.3
394.15 K, 18199 kPa	771.1 ± 1.3
395.15 K, 18444 kPa	771.2 ± 1.3
395.15 K, 18450 kPa	771.1 ± 1.3
396.15 K, 18701 kPa	771 ± 1.3
397.15 K, 18951 kPa	770.9 ± 1.3
